Test results from patent US20250213531A1, “5-MEO-DTM FOR THE TREATMENT OF BIPOLAR DISORDER” (GH RESEARCH IRELAND LIMITED, priority 2022, published 2025).

Test system: patients with postpartum depression (PPD)
Assay: Clinical trial of inhaled 5-MeO-DMT (IDR) in postpartum depression, one patient (6 mg then 12 mg)
Settings: n=1
Procedure: The single-arm, open-label clinical trial will involve 15 adult female patients with clinically diagnosed postpartum depression (PPD).
The second dose (12 mg) will only be administered if: • a. […] The 6 mg dose was safe and well-tolerated according to the investigator, • c. Any psychoactive effects (PsE) of the prior dose have subsided, and • d. Pre-dose vital parameters and forced expiratory volume in one second (FEV1) are in normal range, or if outside of the normal range, are not clinically significant according to the investigator. • 3. Similarly, a third dose (18 mg) will only be administered if: • a. […] The 12 mg dose was safe and well-tolerated according to the investigator, and • c. Any PsE of the prior dose have subsided, and • d. Pre-dose vital parameters and forced expiratory volume in one second (FEV1) are in normal range, or if outside of the normal range, are not clinically significant according to the investigator.
The patients will be assessed for a peak psychedelic experience (based on a patient-scored visual analogue scale, the PE scale), sedation, and other endpoints after dosing. Follow-up visits are planned for Day 1, and Day 7 after the dosing day.

Question: How did the “standard criteria for MADRS response (at least 50% improvement) and MADRS remission (total score <=10)” value turn out when `COc1ccc2[nH]cc(CCN(C)C)c2c1` [5-MeO-DMT] was run?
Answer: fulfilled

Question: And the “tolerability of inhalation procedure” value?
Answer: well tolerated with no inhalation-related adverse events

Question: And the “adverse events (cramping left abdominal pain, headache)” value (Day 0)?
Answer: mild, short-lasting and resolved spontaneously

Question: What about the “ECG, safety laboratory analyses, CADSS” value (ECG 3 hours, laboratory 7 days, CADSS 3 hours, 1 day, 7 days) of the same compound?
Answer: unremarkable
